Article PMC11341359, “Assessing the immunogenicity risk of salmon calcitonin peptide impurities using in silico and in vitro methods” (Frontiers in Pharmacology, 2024)
pIC50: −log10 of the molar value. Peptide text beside a SMILES is read from it.

Tests used:
Experiment in all cases: Class II HLA competition binding assay
HLA DRB1*1501 = target: T1, HLA DRB1*1501 (Homo sapiens, UniProt P01903+P01911); conditions: for pIC50: short assay peptides (Cys7 replaced with Ser), competition with biotinylated allele-specific peptide, soluble HLA DR, overnight, time-resolved fluorescence, triplicate, seven concentrations, unit inferred
T1 construct: incubated overnight to equilibrium with a soluble HLA DR molecule; purchased Benaroya Research Institute, Seattle, Washington
Experimental: (§1) The class II HLA binding assays performed for these studies measure the binding affinity of a target peptide to HLA DRB1*0101, *0301, *0401, *0701, *0901, *1101, *1301, and *1501 in a standardized competition assay. This assay was originally described by [Steere et al. (2006)] and adapted by EpiVax. Previous publications have described the assay in detail ([McMurry et al., 2007]; [Ardito et al., 2011]). Briefly, unlabeled test peptides are incubated overnight to equilibrium with a soluble HLA DR molecule (Benaroya Research Institute, Seattle, Washington) and a biotinylated, allele-specific competitor peptide. The binding reaction is then neutralized, and peptide–HLA complexes are transferred to a 96-well plate coated with the pan-HLA DR antibody, clone L243 (BioLegend), and incubated overnight. The following day, Europium-labeled streptavidin (PerkinElmer, Waltham, MA) is added to identify the peptide–HLA complexes. An indirect measure of binding is determined by time-resolved fluorescence. Each peptide–HLA binding reaction is evaluated in triplicate over a range of seven concentrations. The percent inhibition values at seven distinct concentrations are used to calculate the IC50 value, defined as the concentration at which the test peptide inhibits 50% of the labeled competitor peptide.
(§2) Peptides that bind to the HLA at an IC50 value of 100 nM or less are considered very high-affinity binders. Peptides that bind at IC50 values ranging from 100 nM to 1,000 nM are considered high-affinity binders. Peptides that bind at IC50 values ranging from 1,000 nM to 10,000 nM are considered moderate-affinity binders. Peptides that bind at IC50 values ranging from 10,000 nM to 100,000 nM are considered low-affinity binders, and those with IC50 values ranging from 100,000 nM to 1,000,000 nM are considered negligible-affinity binders. […] We note that these concentrations are specific for the in vitro HLA-binding assay and are used to compare the relative binding affinities of the impurity sequences to the API and independent from the peptide concentrations described for the in vitro T-cell assays described below.

HLA DRB1*1101 = target: T2, HLA DRB1*1101 (Homo sapiens, UniProt P01903+P01911, A100R/A169T/A87E/I96F/K41T/L162R/M171V/P40S/Q125H/Q178H/Q39Y/Q99D/R42S/S66Y/T262R/V115G/W38E); conditions: for pIC50: unit inferred
T2 construct: incubated overnight to equilibrium with a soluble HLA DR molecule; purchased Benaroya Research Institute, Seattle, Washington
Experimental: as §1, §2

HLA DRB1*0101 = target: T3, HLA DRB1*0101 (Homo sapiens, UniProt P01903+P01911, A100R/D57E/F55L/F60I/F76Y/I96L/L162R/M171V/P40L/Q125E/R42F/V115G/Y59C); conditions: short assay peptides (Cys7 replaced with Ser), competition with biotinylated allele-specific peptide, soluble HLA DR, overnight, time-resolved fluorescence, triplicate, seven concentrations; for pIC50: unit inferred
T3 construct: incubated overnight to equilibrium with a soluble HLA DR molecule; purchased Benaroya Research Institute, Seattle, Washington
Experimental: as §1, §2

HLA DRB1*0401 = target: T4, HLA DRB1*0401 (Homo sapiens, UniProt P01903+P01911, A100K/A169T/F76Y/I96L/K127E/L162R/M171V/N62H/P40V/Q125Y/R42H/S133A/S149N/S66Y/V115G/V209L/W38E); conditions: short assay peptides (Cys7 replaced with Ser); competition with biotinylated allele-specific peptide, soluble HLA DR, overnight, time-resolved fluorescence, triplicate, seven concentrations
T4 construct: incubated overnight to equilibrium with a soluble HLA DR molecule; purchased Benaroya Research Institute, Seattle, Washington
Experimental: as §1, §2

HLA DRB1*0901 = HLA DRB1*0901 (Homo sapiens, UniProt P01903+P01911, A100R/A103E/D57H/D86V/F55Y/F60I/F76Y/I96F/K127E/L162R/M171V/P40D/Q125H/Q99R/R33Q/R42F/S133A/S66N/T210M/V115G/W38K/Y107V/Y59G/Y89S); conditions: short assay peptides (Cys7 replaced with Ser); competition with biotinylated allele-specific peptide, soluble HLA DR, overnight, time-resolved fluorescence, triplicate, seven concentrations
Experimental: as §1, §2

HLA DRB1*0301 = target: T5, HLA DRB1*0301 (Homo sapiens, UniProt P01903+P01911, A100K/A102G/A103R/A169T/F55Y/I96L/K41T/L162R/M171V/P40S/Q125H/Q178H/Q39Y/R42S/S66N/T106N/T262R/W38E/Y61H); conditions: short assay peptides (Cys7 replaced with Ser), competition with biotinylated allele-specific peptide, soluble HLA DR, overnight, time-resolved fluorescence, triplicate, seven concentrations; for IC50, HLA DRB1*0301: unit not given; for pIC50: unit inferred
T5 construct: incubated overnight to equilibrium with a soluble HLA DR molecule; purchased Benaroya Research Institute, Seattle, Washington
Experimental: as §1, §2

HLA DRB1*1301 = target: T6, HLA DRB1*1301 (Homo sapiens, UniProt P01903+P01911, A100E/A169T/K41T/L162R/M171V/P40S/Q125H/Q178H/Q39Y/Q99D/R42S/S66N/T262R/W38E/Y61H); conditions: short assay peptides (Cys7 replaced with Ser), competition with biotinylated allele-specific peptide, soluble HLA DR, overnight, time-resolved fluorescence, triplicate, seven concentrations; for IC50, HLA DRB1*1301: unit not given; for pIC50: unit inferred
T6 construct: incubated overnight to equilibrium with a soluble HLA DR molecule; purchased Benaroya Research Institute, Seattle, Washington
Experimental: as §1, §2

HLA DRB1*0701 = HLA DRB1*0701 (Homo sapiens, UniProt P01903+P01911, A100R/A102G/A103Q/D57E/D86V/E43K/F76Y/K127E/L162R/M171V/P40G/Q125H/Q99D/R33Q/R42Y/R54Q/S133A/S66F/T210M/V115G/Y107V/Y59L/Y89S); conditions: short assay peptides (Cys7 replaced with Ser); competition with biotinylated allele-specific peptide, soluble HLA DR, overnight, time-resolved fluorescence, triplicate, seven concentrations
Experimental: as §1, §2

[1] = class by IC50, short assay peptides
[2] = short assay peptides (Cys7 replaced with Ser), competition with biotinylated allele-specific peptide, soluble HLA DR, overnight, time-resolved fluorescence, triplicate, seven concentrations

Structure (SMILES) | binding affinity class, HLA DRB1*1501 (HLA DRB1*1501; [1]) | binding affinity class, HLA DRB1*1101 (HLA DRB1*1101; [1]) | IC50, HLA DRB1*0101 (HLA DRB1*0101; unit not given) | IC50, HLA DRB1*0401 (HLA DRB1*0401) | IC50, HLA DRB1*0901 (HLA DRB1*0901) | IC50, HLA DRB1*0301 (HLA DRB1*0301) | IC50, HLA DRB1*1301 (HLA DRB1*1301) | pIC50 (HLA DRB1*1501) | pIC50 (HLA DRB1*0701) | pIC50 (HLA DRB1*1101; [2]) | pIC50 (HLA DRB1*1301) | pIC50 (HLA DRB1*0101) | pIC50 (HLA DRB1*0401) | pIC50 (HLA DRB1*0901) | pIC50 (HLA DRB1*0301) | IC50, HLA DRB1*0701 (HLA DRB1*0701) | IC50, HLA DRB1*1101 (HLA DRB1*1101; short assay peptides (Cys7 replaced with Ser), competition with biotinylated allele-specific peptide, soluble HLA DR, overnight, time-resolved fluorescence, triplicate, seven concentrations, unit not given)
CC(C)C[C@H](NC(=O)[C@H](CCCCN)NC(=O)[C@@H](N)Cc1c[nH]cn1)C(=O)N[C@@H](CCC(N)=O)C(=O)N[C@H](C(=O)N[C@@H](Cc1ccc(O)cc1)C(=O)N1CCC[C@H]1C(=O)N[C@@H](CCCNC(=N)N)C(=O)N[C@H](C(=O)N[C@H](C(=O)NCC(=O)N[C@@H](CO)C(=O)NCC(=O)N[C@H](C(=O)O)[C@@H](C)O)[C@@H](C)O)[C@@H](C)O)[C@@H](C)O [DES-ASN26_SCT(17-31)] (H-HKLQTYPRTTGSGT-OH; N-terminus and C-terminus assumed) | moderate affinity | negligible affinity | no binding | no binding | no binding | no binding | – | – | – | – | – | – | – | – | – | – | –
CC(C)C[C@H](NC(=O)[C@H](CCCCN)NC(=O)CNC(=O)[C@H](CC(C)C)NC(=O)[C@@H](NC(=O)[C@H](CO)NC(=O)[C@@H](NC(=O)[C@@H](N)CO)[C@@H](C)O)C(C)C)C(=O)N[C@@H](CO)C(=O)N[C@@H](CCC(N)=O)C(=O)N[C@@H](CCC(=O)O)C(=O)N[C@@H](CC(C)C)C(=O)N[C@@H](Cc1c[nH]cn1)C(=O)N[C@@H](CCCCN)C(=O)N[C@@H](CC(C)C)C(=O)N[C@@H](CCC(N)=O)C(=O)N[C@H](C(=O)N[C@@H](Cc1ccc(O)cc1)C(=O)O)[C@@H](C)O [API SCT(5-22)] (H-STSVLGKLSQELHKLQTY-OH) | – | – | – | – | – | – | – | 4.02 | < 3.00 | 3.98 | < 3.00 | 4.95 | < 3.00 | < 3.00 | < 3.00 | – | –
CC(=O)NCCCC[C@H](NC(=O)CNC(=O)[C@H](CC(C)C)NC(=O)[C@@H](NC(=O)[C@H](CO)NC(=O)[C@@H](NC(=O)[C@@H](N)CO)[C@@H](C)O)C(C)C)C(=O)N[C@@H](CC(C)C)C(=O)N[C@@H](CO)C(=O)N[C@@H](CCC(N)=O)C(=O)N[C@@H](CCC(=O)O)C(=O)N[C@@H](CC(C)C)C(=O)N[C@@H](Cc1c[nH]cn1)C(=O)N[C@@H](CCCCN)C(=O)N[C@@H](CC(C)C)C(=O)O [LYS-AC11_SCT(5-19)] (H-STSVLGK(Ac)LSQELHKL-OH) | – | – | – | non-binder | non-binder | non-binder | non-binder | 4.89 | < 3.00 | < 3.00 | < 3.00 | 4.91 | < 3.00 | < 3.00 | < 3.00 | non-binder | loss of binding

Next, values leading:

binding affinity class, HLA DRB1*1501 (HLA DRB1*1501; [1]) | binding affinity class, HLA DRB1*1101 (HLA DRB1*1101; [1]) | IC50, HLA DRB1*0101 (HLA DRB1*0101; unit not given) | IC50, HLA DRB1*0401 (HLA DRB1*0401) | IC50, HLA DRB1*0901 (HLA DRB1*0901) | IC50, HLA DRB1*0301 (HLA DRB1*0301) | IC50, HLA DRB1*1301 (HLA DRB1*1301) | pIC50 (HLA DRB1*1501) | pIC50 (HLA DRB1*0701) | pIC50 (HLA DRB1*1101; [2]) | pIC50 (HLA DRB1*1301) | pIC50 (HLA DRB1*0101) | pIC50 (HLA DRB1*0401) | pIC50 (HLA DRB1*0901) | pIC50 (HLA DRB1*0301) | IC50, HLA DRB1*0701 (HLA DRB1*0701) | IC50, HLA DRB1*1101 (HLA DRB1*1101; short assay peptides (Cys7 replaced with Ser), competition with biotinylated allele-specific peptide, soluble HLA DR, overnight, time-resolved fluorescence, triplicate, seven concentrations, unit not given) | Structure (SMILES)
– | – | – | did not bind | – | did not bind | did not bind | – | – | – | – | – | – | – | – | – | – | CC(C)C[C@H](NC(=O)[C@H](CCC(=O)O)NC(=O)[C@H](CCC(N)=O)NC(=O)[C@@H](N)CO)C(=O)N[C@@H](Cc1c[nH]cn1)C(=O)N[C@@H](CCCCN)C(=O)N[C@@H](CC(C)C)C(=O)N[C@@H](CCC(N)=O)C(=O)N[C@@H](Cc1ccc(O)cc1)C(=O)N1CCC[C@H]1C(=O)N[C@@H](CCCNC(=N)N)C(=O)N[C@H](C(=O)N[C@@H](CC(N)=O)C(=O)N[C@H](C(=O)NCC(=O)N[C@@H](CO)C(=O)NCC(=O)N[C@H](C(=O)O)[C@@H](C)O)[C@@H](C)O)[C@@H](C)O [DES-THR21_SCT(13-27)] (H-SQELHKLQYPRTNTGSGT-OH; N-terminus and C-terminus assumed)
– | – | – | – | – | – | – | 5.64 | < 3.00 | 3.79 | 5.06 | 5.48 | < 3.00 | < 3.00 | 4.18 | – | – | CC(C)C[C@H](NC(=O)[C@H](CCC(=O)O)NC(=O)[C@H](CCC(N)=O)NC(=O)[C@@H](N)CO)C(=O)N[C@@H](Cc1c[nH]cn1)C(=O)N[C@@H](CCCCN)C(=O)N[C@@H](CC(C)C)C(=O)N[C@@H](CCC(N)=O)C(=O)N[C@H](C(=O)N[C@@H](Cc1ccc(O)cc1)C(=O)N1CCC[C@H]1C(=O)N[C@@H](CCCNC(=N)N)C(=O)N[C@H](C(=O)N[C@@H](CC(N)=O)C(=O)N[C@H](C(=O)O)[C@@H](C)O)[C@@H](C)O)[C@@H](C)O [API SCT(13-27)] (H-SQELHKLQTYPRTNT-OH)
